Columns and labels:
[1] = tested on: prostate, lung and colorectal cancer; settings: selenium supplements, humans; cited from earlier work
[2] = tested on: Saccharomyces cerevisiae; settings: Saccharomyces cerevisiae (brewer's/baker's yeast); cited from earlier work
[3] = tested on: Candida albicans; settings: cited from earlier work
[4] = tested on: leukemia; settings: human, in vivo; cited from earlier work
[5] = tested on: PSA levels; settings: men with prostate cancer; cited from earlier work
[6] = tested on: prostate cancer; test: Case 4: person with prostate cancer on Phase I diet and antifungals; type: in vivo, man; settings: one patient; Phase I diet 2 months, nystatin 2 months, then UGN, Caprylic acid, GSE; PSA closer to 4.0 at cancer diagnosis
Description: 4. A person was diagnosed as having prostrate cancer. UTSW study for BPH ×5-6 yrs. Biopsy prior and post program. Normal PSA! At post-study diagnosis, cancer was found: October 2001. They moved to OKC and started watching Doug's show.
Past history includes heavy use of antibiotics, recurrently for allergies, sinusitis.
Went to MD Anderson—found cancer in different place of the prostate, but Cancer was confirmed nonetheless. Gleason stage 7.
Started on Phase I for 2 months (had severe die-off ×4 days—including fever), nystatin thereafter ×2 months. Cont'd diet for 4 months and stays on a variant of the diet. On UGN, Caprylic acid, GSE now ×3 months. Saw John Hogan, D.O. (OKC). Past 2 yrs: PSA now is 1.1. Was closer to 4.0 at the time of cancer diagnosis.
F/U Ultrasound: cannot find any tumors. Whole body scans have been negative.

[7] = tested on: primary human urothelial cells; settings: cited from earlier work
[8] = in vivo; cited from earlier work
[9] = tested on: p53 tumor suppressor gene; settings: cited from earlier work

## [Se] [Selenium]
[1]
  lower risk of developing cancer: 37%
  lower risk of dying from the cancer: 50%

## CC/C(=C(\c1ccccc1)c1ccc(OCCN(C)C)cc1)c1ccccc1 [Tamoxifen]
[2]
  antifungal action: marked antifungal action
[3]
  antifungal action: marked antifungal action

## C[C@@H]1[C@H](O)[C@@H](C)/C=C/C=C/C=C/C=C/C=C/C=C/C=C/[C@H](O[C@@H]2O[C@H](C)[C@@H](O)[C@H](N)[C@@H]2O)C[C@@H]2O[C@](O)(C[C@@H](O)C[C@@H](O)[C@H](O)CC[C@@H](O)C[C@@H](O)CC(=O)O[C@H]1C)C[C@H](O)[C@H]2C(=O)O [amphotericin B]
[4]
  effect on (secondary) fungal infections: cured their (secondary) fungal infections
  effect on cancer (leukemia): successfully treated their cancer

## OC(Cn1cncn1)(Cn1cncn1)c1ccc(F)cc1F [fluconazole]
[4]
  effect on (secondary) fungal infections: cured their (secondary) fungal infections
  effect on cancer (leukemia): successfully treated their cancer

## CC(=O)N1CCN(c2ccc(OCC3COC(Cn4ccnc4)(c4ccc(Cl)cc4Cl)O3)cc2)CC1 (stereo not shown) [ketoconazole]
[5]
  effect on PSA levels: lowered PSA levels

## C[C@@H]1[C@H](O)[C@@H](C)/C=C/C=C/CC/C=C/C=C/C=C/C=C/C(O[C@H]2O[C@H](C)[C@@H](O)[C@H](N)[C@@H]2O)CC2O[C@](O)(CC(O)C(O)CCC(O)CC(O)CC(O)CC(=O)O[C@H]1C)CC(O)C2C(=O)O (stereo partly shown) [nystatin]
[6]
  PSA: 1.1

## C[C@@H]1Cc2c(Cl)cc(C(=O)N[C@@H](Cc3ccccc3)C(=O)O)c(O)c2C(=O)O1 [ochratoxin A]
[7]
  unscheduled DNA synthesis: Induction of unscheduled DNA synthesis

## aflatoxin B1
[8]
  liver carcinoma after exposure: develop liver carcinoma
[9]
  mutation of p53 tumor suppressor gene: induces the transversion of G→T in codon 249

Source: patent publication US20050049207A1 (priority 2003, published 2005)
